Laboratory results as given in patent EP1884251A1, “Use of fragrance compositions for the prevention of the development of indole based malodours from faecal and urine based soils” (Takasago International Corporation, priority 2006, dated 2008).

Assay: Change in fragrance compound concentration during the indole inhibition test (GC-MS at start and after 24 hours)
Assay type: physicochemical
Settings: in fresh human urine, room temperature; for Decrease in Fragrance Compounds after 24 hours (%) >60%: category >60%; for Decrease in Fragrance Compounds after 24 hours (%) 0-30%: category 0-30%
Protocol: Advantageously, the appropriate fragrance compounds may be selected by using the following preferred indole inhibition test which comprises the following steps: • A) 0.02g of fragrance and 0.02g of Tergitol 15-s-12 was added to 7g of fresh human urine in a 20 ml Headspace vial sealed with a PTFE faced septum and well mixed for 10 minutes using a magnetic stirrer. For a blank to test the suitability of a batch of fresh human urine, 7g of human urine was used with 0.02g of demineralised water and 0.02g of Tergitol 15-s-12. If a control was required, to test the efficacy of product base for example, the control contained 7g of human urine to which was added 0.02g of fragrance, minus the active agents and 0.02g of Tergitol 15-s-12. • B) The vials are placed in an autosampler tray at room temperature. • C) At different times the headspace in the vials is sampled for 5 minutes at 35°C by an SPME fibre (PDMS fibre ex Supelco) after 10 minutes at 35°C (incubation time). • D) The SPME fibre is desorbed 1 minute at 265°C from a CTC Combipal autosampler and injected in splitless mode onto an Agilent GC-MS 5973N with a HP-INNOWAX column (30m x 0.25 x 0.25). (Oven conditions : 50°C during 2min - to 250°C at 10°C/min - 250°C during 5 minutes). • E) Under the above GC-MS conditions, indole has a retention time of 19.14 minutes, and can be recognised by its characteristic ions (m/z 117, m/z 89 and m/z 90). • F) In the range of values determined in this work, the area of the indole peak (117) is linearly related to the actual concentration in the vial, and was used without further correction to establish the concentration of indole in "Active" and "Blank" and if present any "Control" fragrances. • G) The material is deemed to be active if the indole concentration in the test sample is below 0.01ppm (wt/wt) after 24 hours incubation at room temperature and the indole in the blank samples is between 0.25ppm (wt/wt) and 1.25ppm (wt/wt) indole after 24 hours storage at room temperature. • H) The change in the active ingredient concentration is determined by comparing measurements at the start of the experiment and after 24 hours using appropriate characteristic ions.
This can be determined by measuring the fragrance concentration in the sample containing the test cocktail at the start and end of the indole inhibition test as described in step I of the test. If the difference between the measurements is less than 60% preferably less than 30% then the material is considered as not to have changed sufficiently to alter the fragrance note and to be particularly preferred.
A sample of fresh human urine is divided into equal portions and a fragrance containing one or more of the effective materials was added as described in the Indole Inhibition Test. […] The samples were stored and after 24 hours the indole content and fragrance active content is measured by gas chromatography with mass spectrometric (GCMS) detection. Those formulations containing active ingredients prevented the formation of indole while both the unfragranced and the alcohol containing control samples had much greater quantities of indole present. Also for the active compounds a GCMS measurement indicated the extent to which the compound was itself consumed as part of the process. In table 2 the decrease in fragrance components has been classified into 3 categories and the letter Y indicates the appropriate category for the compounds which have been measured. The absence of a letter Y in any category means that the decrease has not been measured for that compound. Table 2. Examples of effective materials

SMILES	Decrease in Fragrance Compounds after 24 hours (%) 0-30%	also measured
CCCCCCCCCCC=O [Aldehyde C11]	–	Decrease in Fragrance Compounds after 24 hours (%) >60%: Y (Y= Yes)
O=Cc1ccccc1 [Benzaldehyde]	Y (Y= Yes)	–
O=C/C=C/c1ccccc1 [Cinnamic aldehyde]	Y (Y= Yes)	–
CC(C)=CCCC(C)=CC=O [Citral]	Y (Y= Yes)	–
C=C(C)C1CC=C(C=O)CC1 (stereo not shown) [Perilla aldehyde]	Y (Y= Yes)	–
CCC/C=C/C=O [Trans 2 hexenal]	–	Decrease in Fragrance Compounds after 24 hours (%) 0-60% (category 0-60%): Y (Y= Yes)
CCc1occc(=O)c1O [Veltol Plus]	–	Decrease in Fragrance Compounds after 24 hours (%) >60%: Y (Y= Yes)
